{"source": "patent US20250051324A1", "about": "“PARP INHIBITOR, PHARMACEUTICAL COMPOSITION COMPRISING SAME, AND USE THEREOF” (KEYTHERA (SUZHOU) BIO-PHARMACEUTICALS CO., LIMITED, priority 2021, published 2025)", "tested_on": "breast cancer BR-05-0044E", "format": "in vivo, mouse", "details": "for Tumor Growth Inhibition Rate (TGI): 21 days", "experimental": "Test Objective: The in vivo efficacy of the test compound was evaluated in a subcutaneous xenograft tumor model of breast cancer BR-05-0044E in NOD SCID mice.\nExperimental Animals: Female NOD SCID mice, 6-8 weeks old, weighing 18-20 grams were provided by Beijing Charles River Laboratory Animal Technology Co., Ltd. The animals were acclimated in the experimental environment for 3-7 days before the experiment. The animals were housed in SPF-grade animal rooms in IVC cages (individually ventilated cages) with 4 mice per cage. All cages, bedding, and drinking water were sterilized before use. Cages, feed, and water were changed twice a week. The housing environment and lighting conditions were as follows: temperature: 20-26° C., humidity: 40-70%, light cycle: 12 hours light, 12 hours dark.\nPDX Model Establishment: The human breast cancer BR-05-0044E model was initially derived from clinical samples surgically removed. After tumor tissue was expanded in mice, 20-30 mm^3 BR-05-0044E tumor tissue blocks were subcutaneously implanted into the right flank of each mouse. Tumor growth was monitored, and when the average tumor volume reached approximately 150-200 mm^3, the mice were randomly grouped for administration. Animals were weighed, and tumor volume was measured before administration. Random grouping was based on tumor volume (random block design).\nExperimental Groups: The experiment was divided into the following groups: 1. Vehicle control group, 2. Compound 1 0.1 mg/kg, 3. Compound 1 0.3 mg/kg, 4. Compound 1 1.0 mg/kg. All groups were administered orally by gavage once daily. Routine checks included observing tumor growth and the impact of drug treatment on the animals' daily behavior (such as activity, food and water intake, body weight changes (measured twice a week), appearance, or other abnormalities). The animal number of deaths and side effects in each group were recorded.\nExperimental Indicators: The experimental indicators were to assess whether tumor growth was inhibited, delayed, or cured. Tumor diameter was measured twice a week with calipers. Tumor volume was calculated using the formula: V=0.5a×b^2, where a and b represent the tumor's length and width, respectively.\nThe efficacy of the compound on inhibiting tumor was evaluated by tumor volume and tumor growth inhibition rate (TGI). TGI (%) was calculated as follows: TGI (%)={1−(Average Tumor volume at end of administration in treatment group−Average Tumor volume at start of administration in treatment group)/(Average Tumor volume at end of administration in vehicle control group−Average Tumor volume at start of administration in vehicle control group)}×100%.", "note": "Read-outs that look alike come from different tables or passages of the source."}
{"smiles": "CNC(=O)c1ccc(N2CCN(Cc3cnc4c(C)c(C(F)(F)F)c(=O)[nH]c4c3)CC2)cn1", "note": "[Compound 1, N-methyl-5-(4-((8-methyl-6-oxo-7-(trifluoromethyl)-5,6-dihydro-1,5-naphthyridin-3-yl)methyl)piperazin-1-yl)picolinamide]", "values": [{"measurement": "Tumor Growth Inhibition Rate (TGI)", "setting": "0.1 mg/kg oral once daily", "result": 105, "unit": "%"}, {"measurement": "Tumor Growth Inhibition Rate (TGI)", "setting": "0.3 mg/kg oral once daily", "result": 106, "unit": "%"}, {"measurement": "Tumor Growth Inhibition Rate (TGI)", "setting": "1.0 mg/kg oral once daily", "result": 107, "unit": "%"}, {"measurement": "Body weight vs vehicle control group", "setting": "mouse, in vivo", "result": "no significant difference"}]}
